9 compounds from patent US20060100431A1, “Biologically active compounds” (Amura Therapeutics Limited, priority 2002, published 2006) can be followed below.

What all share (type): biochemical
One test deals with Wild-type cruzipain (Trypanosoma cruzi, UniProt P25779). The test is described as follows: Trypanosoma cruzi cruzipain peptidase activity assay (Ki). Particulars: read-out: Ki, inhibitors of cruzain and cruzipains. The procedure, abridged:
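Native cruzipain from T. cruzi Dm28 epimastigotes, 2.5 nM, in 100 mM sodium phosphate pH 6.75 with 1 mM EDTA and 10 mM L-cysteine, 25 °C, DMSO <1%. Rates taken from continuous fluorogenic substrate read; Ki by regression assuming reversible pure-competitive inhibition.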

The next test deals with T1, CPB2.8ΔCTE (Leishmania mexicana, UniProt P36400).
T1 construct: Wild-type recombinant CPB without the C-terminal extention (i.e. CPB2.8ΔCTE); Dr. Jeremy Mottram (Wellcome Centre for Molecular Parasitology, University of Glasgow)
Nature of the test: Leishmania mexicana cysteine protease B (CPB) peptidase activity assay (Ki). Particulars: Ki, inhibitors of Leismania mexicana CPB protease. Put shortly: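 Apparent Ki was derived by regression of activity against inhibitor concentration, assuming pure-competitive reversible binding. Reaction: 0.25 nM CPB lacking the C-terminal extension, pH 5.5 acetate buffer (1 mM EDTA, 200 mM NaCl, 10 mM DTT), 25 °C, followed by continuous substrate fluorescence.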

A further test addresses T2, human cathepsin B (Homo sapiens, UniProt P07858).
T2 construct: purchased CN Biosciences
The test is described as follows: Cathepsin B peptidase activity assay (Ki). Particulars: read-out: Ki, inhibitors of cathepsin B. Put shortly: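 Buffer: 10 mM bis-tris-propane pH 6.5, 1 mM EDTA, 5 mM 2-mercaptoethanol, 1 mM CaCl2; DMSO <1%. Ki assumed reversible, pure-competitive, from Ki^app=Ki(1+[So]/KM^app) by non-linear regression.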

For the next test, the target named is T3, human cathepsin L (Homo sapiens, UniProt P07711).
T3 construct: purchased CN Biosciences
The test is described as follows: Cathepsin L peptidase activity assay (Ki). The settings on record: read-out: Ki, inhibitors of cathepsin L. The procedure, abridged: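 Run at 25±1° C with DMSO under 1%: buffer was 10 mM BTP pH 6.5 containing 1 mM EDTA, 1 mM CaCl2 and 5 mM 2-mercaptoethanol. Enzyme (1 nM cathepsin L) was added last to start hydrolysis of Ac-Phe-Arg-AMC held at KM^app (~20 μM), followed kinetically by fluorescence at 365/450 nm.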

T3 sequence (P07711 114-333): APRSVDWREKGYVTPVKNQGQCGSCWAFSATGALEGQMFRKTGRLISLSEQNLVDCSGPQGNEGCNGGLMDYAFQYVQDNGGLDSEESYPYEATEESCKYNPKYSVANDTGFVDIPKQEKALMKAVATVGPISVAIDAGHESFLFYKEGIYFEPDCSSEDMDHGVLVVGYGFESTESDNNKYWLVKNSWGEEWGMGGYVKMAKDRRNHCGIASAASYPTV
Chain of Wild-type cruzipain (P25779 whole entry): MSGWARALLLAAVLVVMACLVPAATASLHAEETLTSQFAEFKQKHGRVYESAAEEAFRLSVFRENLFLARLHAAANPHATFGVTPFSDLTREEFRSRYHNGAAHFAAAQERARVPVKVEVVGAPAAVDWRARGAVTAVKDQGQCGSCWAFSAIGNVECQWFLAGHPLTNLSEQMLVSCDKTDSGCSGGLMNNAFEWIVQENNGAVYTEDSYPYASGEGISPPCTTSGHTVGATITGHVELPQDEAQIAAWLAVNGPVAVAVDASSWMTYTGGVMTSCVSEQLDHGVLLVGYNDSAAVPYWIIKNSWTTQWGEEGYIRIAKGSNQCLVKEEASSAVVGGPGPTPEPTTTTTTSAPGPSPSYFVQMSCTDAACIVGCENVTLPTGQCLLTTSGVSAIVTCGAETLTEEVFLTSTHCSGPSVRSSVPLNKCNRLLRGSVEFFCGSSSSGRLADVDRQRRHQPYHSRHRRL
T1 sequence (P36400 126-343, stated change not applied): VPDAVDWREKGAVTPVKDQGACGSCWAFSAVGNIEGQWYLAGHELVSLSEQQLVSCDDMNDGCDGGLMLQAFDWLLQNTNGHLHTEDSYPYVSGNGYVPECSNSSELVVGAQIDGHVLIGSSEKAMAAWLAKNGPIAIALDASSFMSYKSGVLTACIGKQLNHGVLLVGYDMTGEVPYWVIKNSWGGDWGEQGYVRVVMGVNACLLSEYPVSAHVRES

One may read the Ki as a dissociation constant, usually derived from enzyme kinetics or from competition with a known ligand. For `CC(C)C[C@H](NC(=O)c1ccc(N(C)C)cc1)C(=O)N1CC[C@@H]2[C@H]1C(=O)CN2C(=O)c1ccc(Cl)s1` [Example 166, (3aR,6aS)-N-{(1S)-1-[4-(5-Chloro-thiophene-2-carbonyl)-6-oxo-hexahydro-pyrrolo[3,2-b]pyrrole-1-carbonyl]-3-methyl-butyl}-4-dimethylamino-benzamide], the Ki on Wild-type cruzipain, at CPB2.8ΔCTE and at human cathepsin B was < 5 µM throughout.
As to `O=C(N[C@@H](CSCc1ccccc1)C(=O)N1CC[C@@H]2[C@H]1C(=O)CN2C(=O)c1ccccc1)c1ccsc1` [Example 251, (3aR,6aS)-Thiophene-3-carboxylic acid [(1R)-2-(4-benzoyl-6-oxo-hexahydro-pyrrolo[3,2-b]pyrrole-1-yl)-1-benzylsulfanylmethyl-2-oxo-ethyl]-amide], the Ki on human cathepsin L and at human cathepsin B was < 5 µM in each case.
As for `O=C(N[C@@H](CC1CCCCC1)C(=O)N1CC[C@@H]2[C@H]1C(=O)CN2C(=O)c1ccc(-c2ccccc2)s1)c1ccsc1` [Example 258, (3aR,6aS)-Thiophene-3-carboxylic acid {(1S)-1-cyclohexylmethyl-2-oxo-2-[6-oxo-4-(5-phenyl-thiophene-2-carbonyl)-hexahydro-pyrrolo[3,2-b]pyrrole-1-yl]-ethyl}-amide], the Ki at human cathepsin L and on human cathepsin B was < 5 µM each time.
For the compound `O=C(N[C@@H](CC1CCCCC1)C(=O)N1CC[C@@H]2[C@H]1C(=O)CN2C(=O)c1ccccc1)c1cccc(Oc2ccccc2)c1` [Example 259, (3aR,6aS)-N-[(1S)-2-(4-Benzoyl-6-oxo-hexahydro-pyrrolo[3,2-b]pyrrol-1-yl)-1-cyclohexylmethyl-2-oxo-ethyl]-3-phenoxy-benzamide], the Ki on human cathepsin L and on human cathepsin B was < 5 µM throughout.
As to `CS(=O)(=O)c1cccc(C(=O)N2CC(=O)[C@@H]3[C@H]2CCN3C(=O)[C@H](CSCc2ccccc2)NC(=O)c2ccsc2)c1` [Example 262, (3aR,6aS)-Thiophene-3-carboxylic acid {(1R)-1-benzylsulfanylmethyl-2-(4-(3-methanesulfonyl-benzoyl)-6-oxo-hexahydro-pyrrolo[3,2-b]pyrrol-1-yl)-2-oxo-ethyl}-amide], the Ki on human cathepsin L and on human cathepsin B was < 5 µM each time.
Consider `O=C(N[C@@H](CSCc1ccccc1)C(=O)N1CC[C@@H]2[C@H]1C(=O)CN2C(=O)c1ccccc1)C(c1ccccc1)c1ccccc1` [Example 269, (3aR,6aS)-N-[(1R)-2-(4-Benzoyl-6-oxo-hexahydro-pyrrolo[3,2-b]pyrrol-1-yl)-1-benzylsulfanylmethyl-2-oxo-ethyl]-2,2-diphenyl-acetamide], for which the Ki on human cathepsin L and on human cathepsin B was < 5 µM each time.
Consider `O=C(N[C@@H](CSCc1ccccc1)C(=O)N1CC[C@@H]2[C@H]1C(=O)CN2C(=O)C1CCCCC1)c1ccsc1` [Example 273, (3aR,6aS)-Thiophene-3-carboxylic acid [(1R)-1-benzylsulfanylmethyl-2-(4-cyclohexanecarbonyl-6-oxo-hexahydro-pyrrolo[3,2-b]pyrrol-1-yl)-2-oxo-ethyl]-amide], for which the Ki at human cathepsin L and on human cathepsin B was < 5 µM throughout.
With `Cc1cccc(C(=O)N2CC(=O)[C@@H]3[C@H]2CCN3C(=O)[C@H](CSCc2ccccc2)NC(=O)c2ccsc2)c1` [Example 275, (3aR,6aS)-Thiophene-3-carboxylic acid {(1R)-1-benzylsulfanylmethyl-2-[4-(3-methyl-benzoyl)-6-oxo-hexahydro-pyrrolo[3,2-b]pyrrol-1-yl]-2-oxo-ethyl}-amide], the Ki on human cathepsin L and at human cathepsin B was < 5 µM throughout.
As for `O=C(N[C@@H](CSCc1ccccc1)C(=O)N1CC[C@@H]2[C@H]1C(=O)CN2C(=O)c1ccccc1)c1ccc2ncsc2c1` [Example 281, (3aR,6aS)-Benzothiazole-6-carboxylic acid [(1R)-2-(4-benzoyl-6-oxo-hexahydro-pyrrolo[3,2-b]pyrrole-1-yl)-1-benzylsulfanylmethyl-2-oxo-ethyl]-amide], the Ki on human cathepsin L and at human cathepsin B was < 5 µM in each case.
